Data taken from PubChem BioAssay AID2418 (NMMLSC, 2010).
Calls of active or inactive are those of the source.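 How the source made its calls: active means compounds reducing bradykinin-triggered filopodia by more than 10% inhibition at 10 microM; inactive means the rest.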

These compounds were tested on Swiss 3T3 bradykinin-induced filopodia, phalloidin imaging (assay: Cdc42-linked filopodia blockade in 3T3 fibroblasts – imaging, 3T3 cells, bradykinin stimulation, orthogonal assay for Ras-related GTPase inhibitor project (AID 2418)). Details: at 10 µM; active compounds read high.
Compound `COc1ccc(C2CC(c3ccccc3)=NN2c2ccc(S(N)(=O)=O)cc2)cc1` (stereo not drawn) has an inhibition of 56%.
Compound `Cc1cccc(C2CC(c3ccccc3)=NN2c2ccc(S(N)(=O)=O)cc2)c1` (stereo not drawn) has an inhibition of 19%.
In the case of `Cc1ccc(C2CC(c3ccccc3)=NN2c2ccc(S(N)(=O)=O)cc2)cc1` (stereo not drawn), the inhibition is reported as -11% (inactive).
